Assays:
CDK9 = biological target: T1, CDK9 (Homo sapiens, UniProt P50750); experiment: CDK protein degradation activity (Western blotting), CDK9; format: cell-based; details: MDA-MB-231 cells, 16 hours, Western blot
T1 construct: endogenous in cells; host or cells: MDA-MB-231
Summary of the method: (§1)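 MDA-MB-231; cmpd 100 nM / 1 μM / 10 μM final vs DMSO, 16 h. Triton X-100 lysates (pH 7.5, phosphatase/protease inhibitors) → SDS-PAGE → Western blot, anti-CDK2, anti-CDK9, tubulin loading control; densitometry.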

CDK2 = biological target: T2, CDK2 (Homo sapiens, UniProt P24941); experiment: CDK protein degradation activity (Western blotting), CDK2; format: cell-based; details: MDA-MB-231 cells, 16 hours, Western blot
T2 construct: endogenous in cells; host or cells: MDA-MB-231
Summary of the method: as §1

T1 sequence (P50750 whole entry): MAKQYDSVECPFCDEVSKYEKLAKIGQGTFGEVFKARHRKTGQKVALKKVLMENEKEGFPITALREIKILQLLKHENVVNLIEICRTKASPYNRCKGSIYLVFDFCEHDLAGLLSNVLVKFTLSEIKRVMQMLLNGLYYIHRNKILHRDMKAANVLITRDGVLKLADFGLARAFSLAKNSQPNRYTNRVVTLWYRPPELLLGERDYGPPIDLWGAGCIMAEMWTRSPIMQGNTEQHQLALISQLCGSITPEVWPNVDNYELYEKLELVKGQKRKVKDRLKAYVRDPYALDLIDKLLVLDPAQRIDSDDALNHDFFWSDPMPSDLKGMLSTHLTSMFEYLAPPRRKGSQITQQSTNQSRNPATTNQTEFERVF

Row | SMILES | Enzyme degradation CDK9 (% remaining) @ 0.1 μM (CDK9) | Enzyme degradation CDK9 (% remaining) @ 1 μM (CDK9) | Enzyme degradation CDK9 (% remaining) @ 10 μM (CDK9) | Enzyme degradation CDK2 (% remaining) @ 0.1 μM (CDK2) | Enzyme degradation CDK2 (% remaining) @ 1 μM (CDK2) | Enzyme degradation CDK2 (% remaining) @ 10 μM (CDK2)
1 | O=C1CC[C@H](N2C(=O)c3ccc(N4CC(C(=O)N5CCC(CN6CCN(c7ccc(Nc8ncnc9c8ncn9[C@H]8C[C@@H](NC(=O)c9cccc(C(F)(F)F)n9)C8)cc7)CC6)CC5)C4)cc3C2=O)C(=O)N1 [Compound 469, N-((1s,3s)-3-(6-((4-(4-((1-(1-(2-(2,6-dioxopiperidin-3-yl)-1,3-dioxoisoindolin-5-yl)azetidin-3-carbonyl)piperidin-4-yl)methyl)piperazin-1-yl)phenyl)amino)-9H-purin-9-yl)cyclobutyl)-6-(trifluoromethyl)picolinamide] | 0/0/0% | 0/0/0% | 0/0/0% | 40/40/40% | 40/40/40% | 40/40/40%
2 | O=C1CC[C@H](N2C(=O)c3ccc(OCC(=O)N4CCC5(CC4)CC(N4CCC(c6ccc(Nc7ncnc8c7ncn8[C@H]7C[C@@H](NC(=O)Cc8ccccc8)C7)cc6)CC4)C5)cc3C2=O)C(=O)N1 [Compound 295, N-((1s,3s)-3-(6-((4-(1-(7-(2-((2-(2,6-dioxopiperidin-3-yl)-1,3-dioxoisoindolin-5-yl)oxy)acetyl)-7-azaspiro[3.5]nonan-2-yl)piperidin-4-yl)phenyl)amino)-9H-purin-9-yl)cyclobutyl)-2-phenylacetamide] | 0/0/0% | 0/0/0% | 0/0/0% | 20/20/20% | 20/20/20% | 20/20/20%
3 | Cc1cccc(C(=O)N[C@H]2C[C@@H](n3cnc4c(NCc5cccc(N6CCN(CC7CCN(C(=O)COc8cccc9c8C(=O)N(C8CCC(=O)NC8=O)C9=O)CC7)CC6)c5)ncnc43)C2)n1 (stereo partly drawn) [Compound 132, N-((1s,3s)-3-(6-((3-(4-((1-(2-((2-(2,6-dioxopiperidin-3-yl)-1,3-dioxoisoindolin-4-yl)oxy)acetyl)piperidin-4-yl)methyl)piperazin-1-yl)benzyl)amino)-9H-purin-9-yl)cyclobutyl)-6-methylpicolinamide] | 70% | 10% | 0% | 60% | 40% | 40%
4 | Cc1cccc(C(=O)N[C@H]2C[C@H](n3cnc4c(NCC5CCN(CC6CCN(C(=O)CNc7cccc8c7C(=O)N(C7CCC(=O)NC7=O)C8=O)CC6)CC5)ncnc43)C2)n1 (stereo partly drawn) [Compound 75, N-((1r,3r)-3-(6-(((1-((1-((2-(2,6-dioxopiperidin-3-yl)-1,3-dioxoisoindolin-4-yl)glycyl)piperidin-4-yl)methyl)piperidin-4-yl)methyl)amino)-9H-purin-9-yl)cyclobutyl)-6-methylpicolinamide] | 0% | 0% | 10% | 20% | 10% | 30%

Other lines, results leading:

Row | Enzyme degradation CDK9 (% remaining) @ 0.1 μM (CDK9) | Enzyme degradation CDK9 (% remaining) @ 1 μM (CDK9) | Enzyme degradation CDK9 (% remaining) @ 10 μM (CDK9) | Enzyme degradation CDK2 (% remaining) @ 0.1 μM (CDK2) | Enzyme degradation CDK2 (% remaining) @ 1 μM (CDK2) | Enzyme degradation CDK2 (% remaining) @ 10 μM (CDK2) | SMILES
5 | 0/0/0% | 0/0/0% | 0/0/0% | 10/10/10% | 10/10/10% | 10/10/10% | O=C1CC[C@H](N2C(=O)c3cccc(NCC(=O)N4CCC(CN5CCN(c6ccc(Nc7ncnc8c7ncn8C7CC(NC(=O)c8cccc(F)n8)C7)cc6)CC5)CC4)c3C2=O)C(=O)N1 (stereo partly drawn) [Compound 430, N-((1s,3s)-3-(6-((4-(4-((1-((2-(2,6-dioxopiperidin-3-yl)-1,3-dioxoisoindolin-4-yl)glycyl)piperidin-4-yl)methyl)piperazin-1-yl)phenyl)amino)-9H-purin-9-yl)cyclobutyl)-6-fluoropicolinamide]
6 | 40% | 0% | 0% | 90% | 80% | 70% | O=C1CC[C@H](N2C(=O)c3ccc(N4CC(C(=O)N5CCN(CCC6CCN(c7ccc(Nc8ncnc9c8ncn9[C@H]8C[C@@H](NC(=O)Cc9ccccc9)C8)cc7)CC6)CC5)C4)cc3C2=O)C(=O)N1 [Compound 362, N-((1s,3s)-3-(6-((4-(4-(2-(4-(1-(2-(2,6-dioxopiperidin-3-yl)-1,3-dioxoisoindolin-5-yl)azetidin-3-carbonyl)piperazin-1-yl)ethyl)piperidin-1-yl)phenyl)amino)-9H-purin-9-yl)cyclobutyl)-2-phenylacetamide]
7 | 20% | 0% | 0% | 50/50/50% | 50/50/50% | 50/50/50% | O=C1CC[C@@H](c2ccc(OCC(=O)N3CCN(CCCN4CCN(c5ccc(Nc6ncnc7c6ncn7C6CC(NC(=O)Cc7ccccc7)C6)cc5)CC4)CC3)cc2)C(=O)N1 (stereo partly drawn) [Compound 236, N-((1s,3s)-3-(6-((4-(4-(3-(4-(2-(4-(2,6-dioxopiperidin-3-yl)phenoxy)acetyl)piperazin-1-yl)propyl)piperazin-1-yl)phenyl)amino)-9H-purin-9-yl)cyclobutyl)-2-phenylacetamide]
8 | 30/30/30% | 30/30/30% | 30/30/30% | 20/20/20% | 20/20/20% | 20/20/20% | Cc1cccc(C(=O)NC2CC(n3cnc4c(Nc5ccc(N6CCN(CC7CCN(C(=O)C8CCN(c9cc%10c(cc9F)C(=O)N([C@H]9CCC(=O)NC9=O)C%10=O)CC8)CC7)CC6)cc5C)ncnc43)C2)n1 (stereo partly drawn) [Compound 477, N-((1s,3s)-3-(6-((4-(4-((1-(1-(2-(2,6-dioxopiperidin-3-yl)-6-fluoro-1,3-dioxoisoindolin-5-yl)piperidin-4-carbonyl)piperidin-4-yl)methyl)piperazin-1-yl)-2-methylphenyl)amino)-9H-purin-9-yl)cyclobutyl)-6-methylpicolinamide]
